The values below come from the supplement of paper PMC10477900.

A word on the IC50: it is the concentration at which inhibition is half-maximal.

Assay [1] concerns HCT116. The settings on record: 72 h. Here is the method: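 HCT116 control and MTA1-KO (CRISPR) HCT116 cells were seeded in 384-well plates (800 cells/well), treated 16 h later with 237 metabolism-related anticancer drugs at five doses (10 uM, 2 uM, 400 nM, 80 nM, 16 nM) for 72 h, two replicates; viability by CCK8. Values are % inhibition of viability relative to untreated cells, plus fitted IC50.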

The subject of assay [2] is HCT116. Kind of assay: viability inhibition vs untreated; higher = more cytotoxic. The settings on record: 72 h.

Bounds are passed on as bounds.

On to `CC(=O)O[C@H]1[C@H]2O[C@]23[C@@H]2CC[C@@H]4C[C@@H](O)CC[C@]4(C)[C@H]2CC[C@]3(C)[C@H]1c1ccc(=O)oc1` [Cinobufagin], for which the values for the IC50 in the assay on HCT116 [1] (genotype: MTA1-KO) and in the assay with HCT116 [1] (genotype: control) were < 0.016 µM and 0.0795 µM, respectively. Further, the viability inhibition in the assay on HCT116 [2] (genotype: MTA1-KO, 16 nM) was 51.8%; in the assay on HCT116 [2] (genotype: MTA1-KO, 80 nM) it was 51.6%; in the assay on HCT116 [2] (genotype: MTA1-KO, 400 nM) it was 84.4%; in the assay on HCT116 [2] (genotype: MTA1-KO, 2000 nM), 88.9%; with HCT116 [2] (genotype: MTA1-KO, 10000 nM) it was 92.1%; with HCT116 [2] (genotype: control, 16 nM) it was 19.9%. In addition, the viability inhibition stood at 58.1% with HCT116 [2] (genotype: control, 80 nM); 96.5% in the assay on HCT116 [2] (genotype: control, 400 nM); 96.5% with HCT116 [2] (genotype: control, 2000 nM); 94.8% with HCT116 [2] (genotype: control, 10000 nM).
On to `c1ccc(-c2ccc(C(c3ccccc3)n3ccnc3)cc2)cc1` (configuration not stated) [Bifonazole], for which the IC50 in the assay with HCT116 [1] (genotype: MTA1-KO) and in the assay with HCT116 [1] (genotype: control) was > 10 µM throughout. Further, the viability inhibition is -14.7% in the assay with HCT116 [2] (genotype: MTA1-KO, 16 nM); -10.9% in the assay on HCT116 [2] (genotype: MTA1-KO, 80 nM); -14.8% with HCT116 [2] (genotype: MTA1-KO, 400 nM); -16.2% in the assay on HCT116 [2] (genotype: MTA1-KO, 2000 nM); 16.8% in the assay with HCT116 [2] (genotype: MTA1-KO, 10000 nM); 7.85% with HCT116 [2] (genotype: control, 16 nM). In addition, the viability inhibition with HCT116 [2] (genotype: control, 80 nM) was -6.02%; in the assay on HCT116 [2] (genotype: control, 400 nM), -12.2%; with HCT116 [2] (genotype: control, 2000 nM) it was -12%; in the assay with HCT116 [2] (genotype: control, 10000 nM) it was 18.9%.
For `O=C(Oc1ccc([N+](=O)[O-])cc1)N1CCC(C(O)(c2ccc3c(c2)OCO3)c2ccc3c(c2)OCO3)CC1` [JZL184], the IC50 was 5.53 µM in the assay on HCT116 [1] (genotype: MTA1-KO) and > 10 µM in the assay with HCT116 [1] (genotype: control). Moreover, the viability inhibition was 6.97% in the assay on HCT116 [2] (genotype: MTA1-KO, 16 nM); 15.2% in the assay with HCT116 [2] (genotype: MTA1-KO, 80 nM); 21.9% with HCT116 [2] (genotype: MTA1-KO, 400 nM); 37.7% with HCT116 [2] (genotype: MTA1-KO, 2000 nM); 62.3% in the assay with HCT116 [2] (genotype: MTA1-KO, 10000 nM); 9.18% in the assay with HCT116 [2] (genotype: control, 16 nM). Moreover, the viability inhibition in the assay on HCT116 [2] (genotype: control, 80 nM) was -4.77%; in the assay on HCT116 [2] (genotype: control, 400 nM), -6.67%; in the assay with HCT116 [2] (genotype: control, 2000 nM), -12.4%; with HCT116 [2] (genotype: control, 10000 nM), 2.68%.
In the case of `CNC(=O)c1cccc(-c2ccc3c(N4CCOC[C@@H]4C)nc(N4CCOC[C@@H]4C)nc3n2)c1` [Vistusertib], the IC50 was 0.189 µM in the assay with HCT116 [1] (genotype: MTA1-KO) and 0.319 µM in the assay with HCT116 [1] (genotype: control). Further, the viability inhibition in the assay with HCT116 [2] (genotype: MTA1-KO, 16 nM) was 16.2%; with HCT116 [2] (genotype: MTA1-KO, 80 nM) it was 29.8%; in the assay with HCT116 [2] (genotype: MTA1-KO, 400 nM), 63.1%; in the assay on HCT116 [2] (genotype: MTA1-KO, 2000 nM), 83.3%; in the assay on HCT116 [2] (genotype: MTA1-KO, 10000 nM) it was 76.2%; in the assay with HCT116 [2] (genotype: control, 16 nM) it was -6.57%. Moreover, the viability inhibition with HCT116 [2] (genotype: control, 80 nM) was -15%; in the assay on HCT116 [2] (genotype: control, 400 nM) it was 45.6%; with HCT116 [2] (genotype: control, 2000 nM), 74.4%; with HCT116 [2] (genotype: control, 10000 nM), 69.9%.
For the compound `C[C@]12CC[C@H]3[C@@H](CC[C@@]45O[C@@H]4C(O)=C(C#N)C[C@]35C)[C@@H]1CC[C@@H]2O` [Trilostane], the IC50 with HCT116 [1] (genotype: MTA1-KO) and in the assay on HCT116 [1] (genotype: control) was > 10 µM throughout. For the same compound, the viability inhibition with HCT116 [2] (genotype: MTA1-KO, 16 nM) was -17%; in the assay on HCT116 [2] (genotype: MTA1-KO, 80 nM) it was -18.6%; in the assay with HCT116 [2] (genotype: MTA1-KO, 400 nM) it was -14.1%; with HCT116 [2] (genotype: MTA1-KO, 2000 nM), -30.8%; in the assay with HCT116 [2] (genotype: MTA1-KO, 10000 nM), -28.2%; with HCT116 [2] (genotype: control, 16 nM), 8.35%. Also, the viability inhibition in the assay with HCT116 [2] (genotype: control, 80 nM) was 7.91%; with HCT116 [2] (genotype: control, 400 nM), 2.11%; in the assay on HCT116 [2] (genotype: control, 2000 nM) it was -10.9%; in the assay on HCT116 [2] (genotype: control, 10000 nM) it was -4.61%.
For the compound `CC(C)n1nc(-c2ccc3oc(N)nc3c2)c2c(N)ncnc21` [INK 128], the figures for the IC50 with HCT116 [1] (genotype: MTA1-KO) and in the assay on HCT116 [1] (genotype: control) were 1.04 µM and < 0.016 µM, respectively. The viability inhibition with HCT116 [2] (genotype: MTA1-KO, 16 nM) is -1.98%; in the assay with HCT116 [2] (genotype: MTA1-KO, 80 nM), 6.98%; in the assay with HCT116 [2] (genotype: MTA1-KO, 400 nM) it was 33.7%; in the assay with HCT116 [2] (genotype: MTA1-KO, 2000 nM) it was 44.4%; in the assay on HCT116 [2] (genotype: MTA1-KO, 10000 nM), 70%; in the assay with HCT116 [2] (genotype: control, 16 nM) it was 52.9%. For the same compound, the viability inhibition with HCT116 [2] (genotype: control, 80 nM) stood at 40.8%; in the assay with HCT116 [2] (genotype: control, 400 nM), 50.1%; with HCT116 [2] (genotype: control, 2000 nM), 52.3%; in the assay with HCT116 [2] (genotype: control, 10000 nM) it was 76.6%.
